Values of other authors in PMC7909736 (Pharmaceutical Research, 2021).

Settings: share rate of 10 s^−1, room temperature

Viscosity: 0.47 Pa·s
SMILES: CC(=CCCCOCC(O)CO)CCCC(C)CCCC(C)C (stereo not shown) [Formulation C17MGE, mono-O-(5,9, 13-trimethyl-4-tetradecenyl) glycerol ester]
